Assay results reported in publication PMC11324046, “Second-generation piperazine derivatives as promising radiation countermeasures” (RSC Medicinal Chemistry, 2024).
Like-named read-outs stand apart in the source and are kept apart here.

Assays:
[1] = WST-1 proliferation assay, MOLT-4; type: cell-based; details: human, MOLT-4 cells (acute lymphoblastic leukemia), vs 0.1% DMSO control = 100%, mean ± standard deviation
Experimental: (§1) A thorough analysis of antiproliferative activity was performed across various cell culture types representing different histotypes: leukemia (Jurkat, MOLT-4), lung adenocarcinoma (A549), colorectal adenocarcinoma (HT-29), pancreatic carcinoma (PANC-1), breast adenocarcinoma (MCF-7), osteosarcoma (SAOS-2), and one non-cancerous cell line (fetal lung fibroblasts MRC-5). The cell lines were exposed to the newly synthesized compounds at a concentration of 100 μM for 48 h in a single-dose treatment. Changes in cell proliferation compared to the vehicle 0.1% dimethyl sulfoxide (DMSO) control were determined using the WST-1 assay, which is based on mitochondrial dehydrogenase metabolic activities. […] The overall cytotoxic activity of each compound was expressed as growth percent (GP) – the mean of the proliferation of all cell lines treated with the same compound.
(§2) Selected human tumor and non-tumor cell lines Jurkat (acute T-cell leukemia), MOLT-4 (acute lymphoblastic leukemia), A549 (lung carcinoma), HT-29 (colorectal adenocarcinoma), PANC-1 (pancreas epithelioid carcinoma), MCF-7 (breast adenocarcinoma), SAOS-2 (osteosarcoma) and MRC-5 (normal lung fibroblasts) were purchased from either American Type Culture Collection (ATCC; VA, USA) or Sigma-Aldrich (St. Louis, MO, USA) and cultured according to the provider's culture method guidelines. All cell lines were maintained at 37 °C in a humidified 5% carbon dioxide and 95% air incubator. Cells in the maximum range of either 10 passages for the adherent cell lines (A549, HT-29, PANC-1, MCF-7, SAOS-2, and MRC-5), or 20 passages for suspension cell lines (Jurkat, MOLT-4,) and in an exponential growth phase were used for this study. Screening of the antiproliferative effect and growth percent calculation were conducted as follows: each cell line was seeded at previously established optimal density (1–50 × 10^3 cells per well) in a 96-well plate (TPP, Trasadingen, Switzerland) and cells were allowed to settle overnight. Cells were treated for 48 h with compounds at a final concentration of 100 μM. At the end of the cultivation period, the WST-1 proliferation assay (Roche, Basel, Switzerland) was performed according to the manufacturer's protocol. The absorbance was measured at 440 nm using a Tecan Spark multimode microplate reader (Tecan, Mannedorf, Switzerland). Each value is the mean of three independent experiments and represents the percentage of proliferation (100% cell proliferation for 0.1% DMSO mock-treated control cells). The GP value was calculated for each compound tested. GP represents the mean of the percentage proliferation decrease of all cell lines treated with the same compound.

[2] = WST-1 proliferation assay, PANC-1; type: cell-based; details: human, PANC-1 cells (pancreas epithelioid carcinoma), vs 0.1% DMSO control = 100%, mean ± standard deviation
Experimental: as §1, §2

[3] = Ex vivo cytotoxicity on PBMCs, MTS colorimetric assay; details: male, human, peripheral blood mononuclear cells (PBMCs)
Experimental: (§3) To represent the overall inhibitory activity of each compound, viability was calculated as the mean of at least three independent measurements. The purpose was to determine the optimal non-toxic concentration for subsequent use in radioprotection tests.
(§4) Whole blood from a healthy donor was diluted 1 : 1 with Dulbecco's phosphate buffered saline (Sigma-Aldrich, St. Louis, MO, USA). The diluted blood was slowly and carefully pipetted onto an equal volume of Histopaque®-1077 (Sigma-Aldrich, St. Louis, MO, USA). The entire process was carried out at room temperature. Subsequently, centrifugation was performed at 700 × g with the slowest acceleration and deceleration for 20 min at 20 °C. The resulting PBMCs ring was aspirated and centrifuged at 450 × g for 10 min at 20 °C with normal acceleration and deceleration. The cells were washed twice with RPMI 1640 medium with GlutaMAX (Gibco by Thermo Fisher Scientific, Waltham, MA, USA). After the second wash and centrifugation, the cells were diluted with cultivation medium RPMI 1640 with GlutaMAX supplemented with 20% inactivated fetal bovine serum (both Gibco by Thermo Fisher Scientific, Waltham, MA, USA) and 1% antibiotic solution of penicillin, 10 000 IU ml^−1 and streptomycin, 10 mg ml^−1 (Sigma-Aldrich, St. Louis, MO, USA). At the end, the cells were counted using Türk's solution.
(§5) PBMCs were plated into 96-well plates at a cell density of approximately 5 × 10^4 cells per well in a volume of 100 μl. Cells were treated with tested compounds in concentrations of 10, 20, 50, 100, 200, 500, and 1000 μM to determine the optimal non-toxic concentration for each. Cells were incubated for 48 h in a humidified atmosphere with 5% CO2 at 37 °C. 20 μl of MTS – CellTiter 96® AQueous One Solution Cell Proliferation Assay (Promega, Madison, WI, USA) was added to each well 4 h before spectrometric analysis. Cell viability was then determined by measuring absorbance at 490 nm using the Synergy H1 instrument by BioTek. The absorbance of the cell-free culture medium was used as a blank and subtracted from the absorbance readings obtained during the experiment. The viability of untreated control cells was set as 100%.

[4] = tested on: PBMCs; test: as above; details: 48 h
Experimental: as §3, §4, §5

[5] = Annexin V/PI flow cytometry viability of irradiated MOLT-4 cells; type: cell-based, human; details: human, MOLT-4 cells, not irradiated, no irradiation, 24 h, read-out: Viable (annexin V/PI negative) MOLT-4 cells, compound alone
Experimental: (§6) Consequently, we investigated whether the pre-application of these substances can augment the survival of MOLT-4 cells after irradiation exposure. The radioprotective investigation utilized a leukemia MOLT-4 cell model of hematopoietic origin with flow cytometric quantification of cell viability via annexin V/propidium iodide staining.
(§7) In the following step, at 24 h after irradiation, MOLT-4 cell viability and cell death were determined by flow cytometry using an Alexa Fluor® 488 annexin V/Dead Cell Apoptosis kit (Life Technologies, Grand Island, NY, USA) following the manufacturer's instructions. The Alexa Fluor®488 annexin V/Dead Cell Apoptosis kit employs the property of Alexa Fluor®488 conjugated to annexin V to bind to phosphatidylserine in the presence of Ca^2+; and the ability of propidium iodide to enter cells with damaged cell membranes and bind to DNA. For each sample, a minimum of 20 000 events were acquired using a CytoFLEX LX flow cytometer (Beckman Coulter, Miami, FL, USA). List mode data were analyzed using Kaluza Analysis 2.1 software (Beckman Coulter, Miami, FL, USA).

[6] = tested on: MOLT-4 cells; test: as above; type: cell-based, human; details: Homo sapiens, 2 h pretreatment, 2 Gy, 24 h
Experimental: as §6, §7

Structure (SMILES): NCCCNCCSP(=O)(O)O [WR2721, amifostine, reference compound]
- viability at 48 h, 100 µM [1]: 71 ± 21%
- viability at 48 h, 100 µM [2]: 8 ± 4%
- viability at 48 h, 10 µM [3]: 93 ± 17%
- viability at 48 h, 20 µM [3]: 75 ± 30%
- viability at 48 h, 50 µM [3]: 37 ± 9%
- viability at 48 h, 100 µM [3]: 33 ± 12%
- viability at 48 h, 200 µM [3]: 35 ± 17%
- viability at 48 h, 500 µM [3]: 37 ± 20%
- Change of PBMC viability (in words) ([4]; 20 μM): significant decrease
- Optimal non-toxic concentration (PBMC viability not below 100% at 0.05 significance level and higher than 90%) ([4]; PBMCs, MTS): 10 µM
- viability at 24 h, 100 µM ([5]; 100 μM, representative histogram Fig. 5A): 83%
- viability at 24 h, 200 µM ([5]; 200 μM, representative histogram Fig. 6A): 83%
- viability at 100 µM ([6]; MOLT-4, light or radiation study, annexin V/PI negative cells, read-out: Viability rate of MOLT-4 cells relative to 2 Gy irradiation alone (100%)): 106%
- viability at 100 µM ([6]; MOLT-4, representative histogram Fig. 5A (2 Gy alone 26 %), read-out: Viable (annexin V/PI negative) MOLT-4 cells, compound + 2 Gy): 28%
- viability at 200 µM ([6]; MOLT-4, 200 μM, representative histogram Fig. 6A (2 Gy alone 27 %), read-out: Viable (annexin V/PI negative) MOLT-4 cells, compound + 2 Gy): 22%
